# Measured values taken from publication PMC3635961, “Identification of genes related to agarwood formation: transcriptome analysis of healthy and wounded tissues of Aquilaria sinensis” (BMC Genomics, 2013).
# Positions count from the first letter of the chain named.
# Columns and labels:
# Assay in all cases: GC-MS of volatile products (SPME)
# Format in all cases: biochemical
# Settings in all cases: Tris-HCl pH 7.0, MgSO4, DTT, 10% glycerol, 30 C, 4 h; crude protein extract
# ASS2 = biological target: T1, ASS2 (Aquilaria sinensis, UniProt K9MNV6)
# T1 construct: full-length ORF (1644 nt, 547 residues), pET-28a fusion protein, E. coli; crude protein extract assayed
# T1 sequence (K9MNV6 1-547): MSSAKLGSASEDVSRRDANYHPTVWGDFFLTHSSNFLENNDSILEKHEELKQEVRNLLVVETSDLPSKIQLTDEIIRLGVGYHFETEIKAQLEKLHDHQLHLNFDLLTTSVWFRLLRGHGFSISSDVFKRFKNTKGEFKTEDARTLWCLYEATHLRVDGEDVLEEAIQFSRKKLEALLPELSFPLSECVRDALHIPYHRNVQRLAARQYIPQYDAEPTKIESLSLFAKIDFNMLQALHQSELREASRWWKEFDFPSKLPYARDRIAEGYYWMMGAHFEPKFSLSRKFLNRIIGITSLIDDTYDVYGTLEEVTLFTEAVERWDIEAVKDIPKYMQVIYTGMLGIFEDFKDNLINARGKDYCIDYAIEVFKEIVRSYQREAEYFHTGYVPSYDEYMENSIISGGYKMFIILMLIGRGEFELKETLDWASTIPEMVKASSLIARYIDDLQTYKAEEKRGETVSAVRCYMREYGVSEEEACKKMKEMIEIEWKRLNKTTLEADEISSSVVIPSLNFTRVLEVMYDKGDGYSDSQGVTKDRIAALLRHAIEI
# ASS1 = biological target: T2, ASS1 (Aquilaria sinensis, UniProt K9MQ67)
# T2 construct: full-length ORF (1644 nt, 547 residues), pET-28a XhoI/BamHI, His-tag fusion, E. coli BL21(DE3); crude protein extract assayed
# ASS3 = biological target: T3, ASS3 (Aquilaria sinensis, UniProt K9MPP8)
# T3 construct: full-length ORF (1644 nt, 547 residues), pET-28a fusion protein, E. coli; crude protein extract assayed
# T3 sequence (K9MPP8 1-547): T1 sequence (K9MNV6 1-547) with K454E, K481R
# T2 sequence (K9MQ67 entry or part of it): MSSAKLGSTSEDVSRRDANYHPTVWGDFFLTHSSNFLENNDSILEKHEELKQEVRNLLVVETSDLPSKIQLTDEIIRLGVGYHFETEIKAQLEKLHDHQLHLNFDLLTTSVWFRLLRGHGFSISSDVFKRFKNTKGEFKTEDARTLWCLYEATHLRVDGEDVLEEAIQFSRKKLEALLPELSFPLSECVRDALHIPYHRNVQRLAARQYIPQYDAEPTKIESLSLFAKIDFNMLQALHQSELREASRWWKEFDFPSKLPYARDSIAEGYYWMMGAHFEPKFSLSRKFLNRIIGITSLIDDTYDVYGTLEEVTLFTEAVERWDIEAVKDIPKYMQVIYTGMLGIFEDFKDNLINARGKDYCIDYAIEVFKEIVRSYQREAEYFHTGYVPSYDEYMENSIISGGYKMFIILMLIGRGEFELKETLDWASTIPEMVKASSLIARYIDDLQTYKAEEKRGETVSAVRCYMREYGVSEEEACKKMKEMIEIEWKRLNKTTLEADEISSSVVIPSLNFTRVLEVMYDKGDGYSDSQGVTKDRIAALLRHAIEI
compound,measurement,setting,value
CC(C)=CCC/C(C)=C/CC/C(C)=C/COP(=O)(O)OP(=O)(O)O [FPP],GC-MS of volatile products (SPME),ASS2,"ASS1-3 did not accept geranyl diphosphate or geranylgeranyl diphosphate as a substrate, converting only FPP"
same,GC-MS of volatile products (SPME),ASS1,"ASS1-3 did not accept geranyl diphosphate or geranylgeranyl diphosphate as a substrate, converting only FPP"
same,GC-MS of volatile products (SPME),ASS3,"ASS1-3 did not accept geranyl diphosphate or geranylgeranyl diphosphate as a substrate, converting only FPP"
